Measured values from patent publication US8258122B2, “3-([1,2,4]triazolo[4,3-a]pyridin-7-yl)benzamide derivatives” (Almirall, S.A., priority 2007, dated 2012).

Molecular target: T1, human p38alfa (SAPKa) enzyme (Homo sapiens, UniProt Q16539)
T1 construct: purchased University of Dundee
Assay: p38 enzymatic inhibition assay (FRET, biotinylated ATF2 substrate)
Format: biochemical
Conditions: 1 h pre-incubation; ATF2 0.62 μM, ATP 60 μM; 25° C.; read-out: p38α IC50
Procedure: Enzymatic activity assay was performed in 96-well microtiter plates (Corning, catalog number # 3686) using a total volume of 50 μl of an assay buffer composed of 50 mM HEPES pH 7.5, 10 mM MgCl2, 1.75 mM Na3VO4.
Various concentrations of the test compound or vehicle controls were pre-incubated for one hour with 0.055 μg/ml of the human p38alfa (SAPKa) enzyme (obtained from University of Dundee). The reaction started by addition of biotinylated ATF2 substrate and ATP in concentrations around their Km values (final concentration 0.62 μM and 60 μM respectively) and took place for one hour at 25° C. Addition of the detection reagents, streptavidin—XL665 and anti-phosphoresidue antibody coupled to Europium cryptate, caused the juxtaposition of the cryptate and the XL665 fluorophore, resulting in fluorescence energy transfer (FRET). The FRET intensity depends on the amount of bounded cryptate antibody, which is proportional to the extent of substrate phosphorylation. FRET intensity was measured using Victor 2V spectrofluorometer.
Data were analyzed by non-linear regression (Hill equation) to generate a dose-response curve. The calculated IC50 value is the concentration of the test compound that caused a 50% decrease in the maximal FRET intensity.

T1 sequence (Q16539 whole entry): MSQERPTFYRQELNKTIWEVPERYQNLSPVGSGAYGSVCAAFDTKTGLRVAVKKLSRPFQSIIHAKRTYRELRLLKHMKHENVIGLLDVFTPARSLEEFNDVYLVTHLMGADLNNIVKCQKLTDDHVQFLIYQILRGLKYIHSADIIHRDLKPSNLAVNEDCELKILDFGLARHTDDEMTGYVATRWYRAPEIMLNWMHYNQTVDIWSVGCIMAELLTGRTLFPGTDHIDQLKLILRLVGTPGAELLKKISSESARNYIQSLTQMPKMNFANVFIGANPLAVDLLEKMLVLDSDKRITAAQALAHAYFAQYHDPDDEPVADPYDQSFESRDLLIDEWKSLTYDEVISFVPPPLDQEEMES

| SMILES | IC50 [nM] |
| --- | --- |
| Cc1ccc(C(=O)NC2CC2)cc1-c1ccn2c(C(C)(C)C)nnc2c1 [Example 1, 3-(3-tert-Butyl-[1,2,4]triazolo[4,3-a]pyridin-7-yl)-N-cyclopropyl-4-methylbenzamide] | 16 |
| Cc1ccc(C(=O)NC2CC2)cc1-c1ccn2c(NCC3CC3)nnc2c1 [Example 7, N-Cyclopropyl-3-(3-(cyclopropylmethylamino)-[1,2,4]triazolo[4,3-a]pyridin-7-yl)-4-methylbenzamide] | 75 |
| Cc1ccc(C(=O)NC2CC2)cc1-c1ccn2c(N3CCCC3)nnc2c1 [Example 16, N-Cyclopropyl-4-methyl-3-(3-pyrrolidin-1-yl-[1,2,4]triazolo[4,3-a]pyridin-7-yl)-benzamide] | 83 |
| Cc1ccc(C(=O)NC2CC2)cc1-c1ccn2c(-c3ccncc3Cl)nnc2c1 [Example 30, 3-[3-(3-Chloropyridin-4-yl)[1,2,4]triazolo[4,3-a]pyridin-7-yl]-N-cyclopropyl-4-methylbenzamide] | 38 |
| Cc1c(F)cc(C(=O)NC2CC2)cc1-c1ccn2c(C3CCOCC3)nnc2c1 [Example 33, N-Cyclopropyl-3-fluoro-4-methyl-5-[3-(tetrahydro-2H-pyran-4-yl)[1,2,4]triazolo[4,3-a]pyridin-7-yl]benzamide] | 30 |
| CO[C@@H](C)c1nnc2cc(-c3cc(C(=O)NC4CC4)ccc3C)ccn12 [Example 38, N-Cyclopropyl-3-{3-[(1S)-1-methoxyethyl][1,2,4]triazolo[4,3-a]pyridin-7-yl}-4-methylbenzamide] | 38 |
| Cc1c(F)cc(C(=O)NC2CC2)cc1-c1ccn2c(C(=O)N3CCCC3)nnc2c1 [Example 42, N-Cyclopropyl-3-fluoro-4-methyl-5-[3-(pyrrolidin-1-ylcarbonyl)[1,2,4]triazolo[4,3-a]pyridin-7-yl]benzamide] | 46 |
| Cc1c(F)cc(C(=O)NC2CC2)cc1-c1c(F)cn2c(C(C)(C)N(C)C)nnc2c1F [Example 47, N-Cyclopropyl-3-{3-[1-(dimethylamino)-1-methylethyl]-6,8-difluoro[1,2,4]triazolo-[4,3-a]pyridin-7-yl}-5-fluoro-4-methylbenzamide] | 15.4 |

Now those with a lower IC50, led by results:

| IC50 [nM] | SMILES |
| --- | --- |
| 11.9 | Cc1c(F)cc(C(=O)NC2CC2)cc1-c1c(F)cn2c(C(C)(C)N)nnc2c1F [Example 46, 3-[3-(1-Amino-1-methylethyl)-6,8-difluoro[1,2,4]triazolo[4,3-a]pyridin-7-yl]-N-cyclopropyl-5-fluoro-4-methylbenzamide] |
| 10 | Cc1c(F)cc(C(=O)NC2CC2)cc1-c1c(F)cn2c(C3CC3)nnc2c1F [Example 23, N-cyclopropyl-3-(3-cyclopropyl-6,8-difluoro[1,2,4]triazolo[4,3-a]pyridin-7-yl)-5-fluoro-4-methylbenzamide] |
| 6 | Cc1ccc(C(=O)NC2CC2)cc1-c1ccn2c(-c3ccccc3Cl)nnc2c1 [Example 6, 3-(3-(2-Chlorophenyl)-[1,2,4]triazolo[4,3-a]pyridin-7-yl)-N-cyclopropyl-4-methylbenzamide] |
| 3.2 | Cc1ccc(C(=O)NC2CC2)cc1-c1cc2nnc(C(C)(C)C)n2cc1F [Example 18, 3-(3-tert-Butyl-6-fluoro-[1,2,4]triazolo[4,3-a]pyridin-7-yl)-N-cyclopropyl-4-methylbenzamide] |
| 3.1 | Cc1c(F)cc(C(=O)NC2CC2)cc1-c1ccn2c(C(C)(C)O)nnc2c1 [Example 45, N-Cyclopropyl-3-fluoro-5-[3-(1-hydroxy-1-methylethyl)[1,2,4]triazolo[4,3-a]pyridin-7-yl]-4-methylbenzamide] |
| 3 | Cc1c(F)cc(C(=O)NC2CC2)cc1-c1ccn2c(C(C)C)nnc2c1 [Example 28, N-cyclopropyl-3-fluoro-5-(3-isopropyl[1,2,4]triazolo[4,3-a]pyridin-7-yl)-4-methylbenzamide] |
| 2 | Cc1c(F)cc(C(=O)NC2CC2)cc1-c1ccn2c(C(C)(C)C)nnc2c1 [Example 9, 3-(3-tert-Butyl-[1,2,4]triazolo[4,3-a]pyridin-7-yl)-N-cyclopropyl-5-fluoro-4-methylbenzamide] |
| 2 | Cc1c(F)cc(C(=O)NC2CC2)cc1-c1cc2nnc(C(C)(C)C)n2cc1F [Example 19, 3-(3-tert-Butyl-6-fluoro-[1,2,4]triazolo[4,3-a]pyridin-7-yl)-N-cyclopropyl-5-fluoro-4-methylbenzamide] |
| 0.3 | Cc1c(F)cc(C(=O)NC2CC2)cc1-c1ccn2c(-c3ccncc3Cl)nnc2c1 [Example 31, 3-[3-(3-Chloropyridin-4-yl)[1,2,4]triazolo[4,3-a]pyridin-7-yl]-N-cyclopropyl-5-fluoro-4-methylbenzamide] |
